Like-named read-outs stand apart in the source and are kept apart here.
Tests used:
Assay type in all cases: cell-based
MCF-7 = experiment: cells; conditions: read-out: IC50 (μM) MCF-7 72 h
Protocol: (§1) Cells were seeded in 96-well plates and maintained for 14-16 hours, then were treated with dimethylsulfoxide (DMSO) or test compound at various concentrations (i.e., 0.312, 1.25, 5, 20 μM) for 72 hrs. The cells were then washed with phosphate buffer saline (PBS) twice, added a medium containing 3-(4,5-dimethylthiazol-2-yl)-2,5-diphenyltetrazolium bromide (MTT) at a final concentration of 0.5 mg/mL, and incubated for 4 hr at 37° C. in a humidified incubator containing 5% CO2 in air. Cells having functional succinate dehydrogenase of mitochondria would convert MTT to formazan. Then, the medium was replaced with 100 μL of DMSO for 30 min at room temperature, and the 96-well plate was read by an ELISA reader at 550 nm to get the absorbance density values. The IC50 values of death cell lines were calculated accordingly.
(§2) The Ru^TEN complexes of Example 1 were evaluated for their anti-proliferative properties in two breast cancer cell lines, namely, MCF-7 and MDA-MB-231 cells via MTT assay. […] MCF-7 is a chemotherapy-responsive breast cancer cell line of luminal subtype with high expression of estrogen receptor (ER), whereas MDA-MB-231 is a triple negative breast cancer (TNBC) or basal-like breast cancer cell ine. TNBC is defined as highly invasive cancer that lacks expression of ER, progesterone receptor (PR) and Her-2; it has one of the worst outcomes among all subtypes of breast cancers. The aggressive nature of TNBC may be related to the presence of breast cancer stem cells within the tumor; therefore, MDA-MB-231 cells are often used as a model of mammary cancer stem cells.
(§3) The cytotoxicity of Ru^TEN complexes of Example 1 was compared to that of cisplatin or oxaliplatin, which were known to induce their anticancer effects by the mode of action different from ER stress. Three CSC-selective organic compounds, salinomycin, etoposide and abamectin, were also used for comparison. Briefly, MCF-7 and MDA-MB-231 cells were respectively treated with increasing concentrations of compounds of interest for 24 or 72 hrs and then the cell viability was measured.

MDA-MB-231 = experiment: Anti-proliferative activity (MTT assay), MDA-MB-231
Protocol: as §1, §2, §3

[1] = tested on: ALDHbright subpopulation of MDA-MB-231 cells; experiment: ALDEFLUOR assay (ALDH activity); conditions: versus control, FIG. 3
Protocol: The cells were stained with […] bodipy-aminoacetaldehyde (BAAA), and then cultured at 37° C. for 45 minutes. An ALDH1 inhibitor, diethyl aminobenzaldehyde (DEAB), was used as the negative control. The stained cells were assayed using BD FACS Aria III. In this case, the positive fluorescent ALDH1-expressed cells (ALDH+) were detected in a green fluorescent channel (520 to 540 nm).
While CD44+/CD24−/low phenotype has often been associated with breast CSC/progenitor cell features, yet there is no correlation between the presence of CD44+/CD24−/low cells and clinical outcome and formation of distant metastases. It is the presence of aldehyde dehydrogenase (ALDH) bright cells which separates highly tumorigenic CD44+/CD24−/low/ALDHbright population from non-tumorigenic cells. Unlike CD44+/CD24−/low, ALDH is a predictor of metastasis and is associated with a poor clinical outcome. The main role of ALDH enzymes is the detoxification of aldehydes generated in various metabolic processes into carboxylic acids. However, several ALDH isoforms are involved in retinoic acid signaling and this particular function was linked to the “stemness” of CSCs. The functional activity of ALDHs can be accurately determined by ascertaining the cellular conversion of […] (BAAA) into a fluorescent molecule BODIPY-aminoacetate (BAA). ATP-binding cassette (ABC)-transporter inhibitors in the assay buffer prevent the efflux of BAA from the cells, resulting in the accumulation of BAA in cytoplasm.

MDA-MB-231 mammospheres [2] = experiment: Mammosphere formation assay, MDA-MB-231 primary; conditions: for Number of MDA-MB-231 mammospheres / Size (μm) of MDA-MB-231 mammospheres: primary mammospheres grown 96 hr, incubated with compound 72 hrs, >50 μm analyzed; for decrease in number of MDA-MB-231 mammospheres / decrease in size of MDA-MB-231 mammospheres: versus control
Protocol: (§4) Since the breast cancer stem cells formed a mass of colonies in the form of floating spheres without attaching to a surface of a plate, the size and number of the masses were observed by a mammosphere formation assay to determine a cancer-stem-cell-specific effect.
(§5) Single-cell suspension was cultured at a density of 1,000 to 15,000 cells/well using a MammoCult™ Human Medium kit (Stemcell Technologies Inc Vancouver, CA), and the spherical cells were counted and observed under a microscope.
(§6) The mammosphere assay is based on the concept that when cells proliferate in three-dimensional spheroid structures, only cancer cells with stem-like characteristics are able to evade anoikis.

MDA-MB-231 mammospheres [3] = experiment: Cytotoxicity in MDA-MB-231 mammospheres (Table 2); conditions: read-out: IC50 (μM) MDA-MB-231 mammospheres 72 h
MCF-7 mammospheres = experiment: Mammosphere formation assay, MCF-7; conditions: for Number of MCF-7 mammospheres / Size (μm) of MCF-7 mammospheres: primary mammospheres grown 96 hr, incubated with compound 72 hrs, >50 μm analyzed; for decrease in number of MCF-7 mammospheres / decrease in size of MCF-7 mammospheres: versus control
Protocol: as §4, §5, §6

[4] = tested on: MDA-MB-231 secondary mammospheres; experiment: Secondary mammosphere formation (self-renewal), MDA-MB-231; conditions: for Number of MDA-MB-231 secondary mammospheres / Size (μm) of MDA-MB-231 secondary mammospheres: from drug-treated primary mammospheres, grown in drug-free conditions for 7 days; for propensity to form secondary mammospheres: single cells from drug-treated primary mammospheres, 7 days drug-free, FIG. 2
Protocol: To this purpose, drug-treated primary MDA-MB-231 mammospheres were dissociated into single cell suspensions and incubated for 7 days in ultralow attachment drug-free conditions.

MDA-MB-231 mammospheres [5] = experiment: Viability of MDA-MB-231 mammospheres, Alamar Blue assay (Table 1); conditions: for IC50: read-out: IC50 (μM), growth of MDA-MB-231 mammospheres
MDA-MB-231 mammospheres [6] = experiment: Invasion / dispersion of spheroids into 3D collagen; conditions: cells incubated with compound 72 hr, FIG. 4
Excerpt: CSCs are associated with highly invasive phenotype and it is believed that this subset of cancer cells gives rise to metastases. In order to monitor the dissemination of MCF-7 and MDA-MB-231 breast cancer spheroids, the spheroids were embedded into three-dimensional (3D) collagen scaffold using Aim Biotech 3D cell culture chips. Collagen with spheroids was introduced into the central region of the microfluidic system where it polymerized via thermal cross-linking. Cell culture media was introduced into media channels forcing spheroids to move through collagen towards the media.
Thus, whether Ru^TEN complexes and salinomycin affected the invasive properties of MDA-MB-231 spheroids was then investigated. To this purpose, MDA-MB-231 monolayer cells were incubated with compounds of interest (e.g., Ru^TEN complexes of Examplel or salinomycin) for 72 hr, then the delamination was allowed to proceed for over 28 hr. Results are depicted in FIG. 4.

[7] = 24 h, MTT, read-out: IC50 (μM) MDA-MB-231 24 h
[8] = 72 h, MTT, read-out: IC50 (μM) MDA-MB-231 72 h

COc1cc([C@@H]2c3cc4c(cc3[C@@H](O[C@@H]3O[C@@H]5CO[C@@H](C)O[C@H]5[C@H](O)[C@H]3O)[C@H]3COC(=O)[C@H]23)OCO4)cc(OC)c1O [Etoposide, etoposide]
IC50 (MCF-7; Homo sapiens, MCF7, 72 h): 0.79 ± 0.21 µM | IC50 (MDA-MB-231; Homo sapiens, MDA-MB-231, 24 h, read-out: IC50 (μM) MDA-MB-231 24 h): > 1000 µM | IC50 (MDA-MB-231; Homo sapiens, MDA-MB-231, 72 h, read-out: IC50 (μM) MDA-MB-231 72 h): 6.4 ± 1.2 µM | reduction of ALDHbright sub-population [1]: 52% | Number of MDA-MB-231 mammospheres (MDA-MB-231 mammospheres [2]): 107 ± 37 | Size (μm) of MDA-MB-231 mammospheres (MDA-MB-231 mammospheres [2]): 123 ± 20 μm | decrease in number of MDA-MB-231 mammospheres (MDA-MB-231 mammospheres [2]): 10-15% | decrease in size of MDA-MB-231 mammospheres (MDA-MB-231 mammospheres [2]): did not affect the size | IC50 (MDA-MB-231 mammospheres [3]; Homo sapiens, MDA-MB-231, 72 h): > 40 µM | Number of MCF-7 mammospheres (MCF-7 mammospheres): 237 ± 11 | Size (μm) of MCF-7 mammospheres (MCF-7 mammospheres): 135 ± 6 μm | decrease in number of MCF-7 mammospheres (MCF-7 mammospheres): 10-15% | decrease in size of MCF-7 mammospheres (MCF-7 mammospheres): did not affect the size | Number of MDA-MB-231 secondary mammospheres [4]: 73 ± 22 | Size (μm) of MDA-MB-231 secondary mammospheres [4]: 63 ± 4 μm

O=C1[O][Pt]2([NH][C@@H]3CCCC[C@H]3[NH]2)[O]C1=O [Oxaliplatin, oxaliplatin]
IC50 (MCF-7; 72 h, MTT): 1.1 ± 0.2 µM | IC50 (MDA-MB-231; [7]): 348 ± 78 µM | IC50 (MDA-MB-231; [8]): 4.6 ± 1 µM | inhibition of mammosphere growth, MDA-MB-231 (MDA-MB-231 mammospheres [2]): did not show any potency in inhibiting mammosphere growth | Number of MDA-MB-231 mammospheres (MDA-MB-231 mammospheres [2]): 144 ± 50 | Size (μm) of MDA-MB-231 mammospheres (MDA-MB-231 mammospheres [2]): 99 ± 27 μm | IC50 (MDA-MB-231 mammospheres [3]; 72 h): > 40 µM | viability of MDA-MB-231 mammospheres (MDA-MB-231 mammospheres [5]): did not affect the viability | inhibition of mammosphere growth, MCF-7 (MCF-7 mammospheres): did not show any potency in inhibiting mammosphere growth | Number of MCF-7 mammospheres (MCF-7 mammospheres): 274 ± 93 | Size (μm) of MCF-7 mammospheres (MCF-7 mammospheres): 107 ± 17 μm | Number of MDA-MB-231 secondary mammospheres [4]: 122 ± 10 | Size (μm) of MDA-MB-231 secondary mammospheres [4]: 86 ± 14 μm

COc1ccc([N+]2=Cc3ccc4ccccc4[n+]3[Ru-]2[Cl])cc1.Cc1c(C)c(C)c(C)c(C)c1C.[Cl-] [Ru^TEN2, [(η6-hexamethylbenzene)RuCl(4-methoxv-N-(2-quinolinyl-methylene)-aniline)]Cl]
IC50 (MCF-7; 72 h, MTT): 4.1 ± 0.9 µM | IC50 (MDA-MB-231; [7]): 10 ± 1 µM | IC50 (MDA-MB-231; [8]): 2.2 ± 0.3 µM | inhibition of mammosphere growth, MDA-MB-231 (MDA-MB-231 mammospheres [2]): did not inhibit mammosphere growth | Number of MDA-MB-231 mammospheres (MDA-MB-231 mammospheres [2]): 141 ± 41 | Size (μm) of MDA-MB-231 mammospheres (MDA-MB-231 mammospheres [2]): 98 ± 18 μm | IC50 (MDA-MB-231 mammospheres [3]; 72 h): > 40 µM | IC50 (MDA-MB-231 mammospheres [5]): > 20 µM | Number of MCF-7 mammospheres (MCF-7 mammospheres): 255 ± 175 | Size (μm) of MCF-7 mammospheres (MCF-7 mammospheres): 114 ± 24 μm | dispersion of cells into collagen after 4 hr (MDA-MB-231 mammospheres [6]): did not exhibit significant dispersion | dispersion of cells into collagen after 28 hr / entire incubation period (MDA-MB-231 mammospheres [6]): only slight dispersion | Number of MDA-MB-231 secondary mammospheres [4]: 186 ± 45 | Size (μm) of MDA-MB-231 secondary mammospheres [4]: 85 ± 15 μm | propensity to form secondary mammospheres [4]: only slight changes in size and number of mammospheres

Cc1c(C)c(C)c(C)c(C)c1C.Clc1cccc([N+]2=Cc3ccc4ccccc4[n+]3[Ru-]2[Cl])c1.[Cl-] [Ru^TEN4, [(η6-Hexamethylbenzene)RuCl(3-chloro-N-(2-quinolinylmethylene)aniline)]Cl]
IC50 (MCF-7; 72 h, MTT): 2.5 ± 0.7 µM | IC50 (MDA-MB-231; [7]): 9.2 ± 1.3 µM | IC50 (MDA-MB-231; [8]): 1.4 ± 0.3 µM | Number of MDA-MB-231 mammospheres (MDA-MB-231 mammospheres [2]): 118 ± 17 | Size (μm) of MDA-MB-231 mammospheres (MDA-MB-231 mammospheres [2]): 95 ± 37 μm | decrease in number of MDA-MB-231 mammospheres (MDA-MB-231 mammospheres [2]): 17% | decrease in size of MDA-MB-231 mammospheres (MDA-MB-231 mammospheres [2]): 10% | IC50 (MDA-MB-231 mammospheres [3]; 72 h): 7.2 ± 1.8 µM | IC50 (MDA-MB-231 mammospheres [5]): 11 µM | Number of MCF-7 mammospheres (MCF-7 mammospheres): 236 ± 88 | Size (μm) of MCF-7 mammospheres (MCF-7 mammospheres): 105 ± 18 μm | decrease in number of MCF-7 mammospheres (MCF-7 mammospheres): 10% | decrease in size of MCF-7 mammospheres (MCF-7 mammospheres): 17% | dispersion of cells into collagen after 4 hr (MDA-MB-231 mammospheres [6]): did not exhibit significant dispersion | dispersion of cells into collagen after 28 hr / entire incubation period (MDA-MB-231 mammospheres [6]): only slight dispersion | Number of MDA-MB-231 secondary mammospheres [4]: 91 ± 33 | Size (μm) of MDA-MB-231 secondary mammospheres [4]: 70 ± 6 μm | propensity to form secondary mammospheres [4]: drastically reduced propensity to form secondary mammospheres

abamectin
IC50 (MCF-7; 72 h, MTT): 7 ± 2.2 µM | IC50 (MDA-MB-231; [7]): 18 ± 6 µM | IC50 (MDA-MB-231; [8]): 6.4 ± 2.3 µM | Number of MDA-MB-231 mammospheres (MDA-MB-231 mammospheres [2]): 4 ± 1 | Size (μm) of MDA-MB-231 mammospheres (MDA-MB-231 mammospheres [2]): 76 ± 8 μm | IC50 (MDA-MB-231 mammospheres [3]; 72 h): 4 ± 0.5 µM | Number of MCF-7 mammospheres (MCF-7 mammospheres): 147 ± 33 | Size (μm) of MCF-7 mammospheres (MCF-7 mammospheres): 77 ± 13 μm

Source: patent US11958869B2, “Ruthenium arene Schiff-base complexes and uses thereof” (CITY UNIVERSITY OF HONG KONG, priority 2021, dated 2024)
